US6660772B2, “Use of 2-amino-1-(4-hydroxy-2-methanesulfonamidophenyl)ethanol for treating urinary incontinence” (Boehringer Ingelheim Pharma KG, priority 2001, dated 2003)

Test system: dog
Assay: Activity (maximum contraction) in the dog compared with noradrenaline
Details: percentage of contraction compared with noradrenaline
Experimental: The efficacy and selectivity of the compound according to the invention is determined as follows, using the same findings as described in 1:
Maximum contraction in the dog and activity on human urethra are percentages of contraction compared with noradrenaline. Selectivity in the dog is the difference obtained from the percentage contraction of the dog's femoral artery at 10^−5 M and percentage contraction of the carotid artery in the dog at 10^−5 M.

## CS(=O)(=O)Nc1cc(C(O)CN)ccc1O (centres unmarked) [Compound 1, 2-amino-1-(4-hydroxy-3-methanesulfonamidophenyl)ethanol]
  Activity in the Dog (maximum contraction): 103%

## CS(=O)(=O)Nc1ccc(F)c([C@@H](O)CN)c1 [Compound 2, (−)-R-2-Amino-1-(2-fluoro-5-methanesulfonamidophenyl)ethanol]
  Activity in the Dog (maximum contraction): 79%
